From PMC3658936, “Comparison of cyclic RGD peptides for αvβ3 integrin detection in a rat model of myocardial infarction” (EJNMMI Research, 2013)
Like-named read-outs stand apart in the source and are kept apart here. Each block holds one compound with its values, some of them ahead of it.

Assays:
αvβ3 integrin [1] = assay: in vivo; conditions: for tissue uptake per volume at 1.375 h: male, Lewis, in vivo, iv, total radioactivity
Method: Permanent ligation of the left anterior descending coronary artery was performed, as previously described in 34 healthy male Lewis rats (Charles Rivers Laboratories, Sulzfeld, Germany) aged 8 to 10 weeks to induce MI. Briefly, the rats were anaesthetised with intramuscular administration of midazolam 5 mg/kg (Dormicum®, Roche; Grenzach-Wyhlen, Germany), medetomidin 0.5 mg/kg (Dormitor®, Pfizer, Karlsruhe, Germany) and fentanyl 0.05 mg/kg (Ratiopharm, Ulm, Germany) and connected to a rodent ventilator. The heart was exposed through a left lateral thoracotomy of the fourth intercostal space, and the left anterior descending (LAD) artery was ligated near to its origin (2 to 3 mm from the tip of the left atrium). Two rats underwent sham operation, which consisted of the same procedures except that the LAD artery suture was not tightened. The rats were treated with 0.05 mg/kg buprenorphin (Temgesic®, Essex, Germany) and 4 mg/kg carprofen (Rimadyl, Pfizer, Germany) for 72 h post surgery. The study protocols were approved by the regional governmental commission for animal protection (Regierung von Oberbayern, Munich, Germany).
A subset of animals (n = 7) was imaged using a small-animal PET/CT scanner (Inveon, Siemens Medical Solutions, Knoxville, TN, USA). The rats were anaesthetised using 1.5% isoflurane. Breathing was monitored and temperature was maintained using a heating pad throughout the imaging procedures. The rats were injected with 37 MBq of [^13N]NH3 via tail a vein catheter, and perfusion images were acquired for 15 min starting at the time of injection. A CT scan was performed for anatomical localisation. The animals were left anaesthetised in the scanner, and 60 min later, the animals were injected with either ^68Ga-NODAGA-RGD (72 MBq, n = 4) or ^68Ga-TRAP(RGD)3 (63 MBq, n = 3) via the tail vein. […]
The ^68Ga- and ^13N-PET images were fused, and the uptake was visualised using the Inveon Research Workplace (Siemens, Knoxville, TN, USA). […] The mean radioactivity concentration within the ROI was expressed as the percentage of injected dose per cubic centimetre (% ID/cc).

αvβ3 integrin [2] = test system: αvβ3 integrin; parameters: method as in PMID 22147338, PMID 22444238; conditions: competitive displacement assay on M21 human melanoma cells; cited from earlier work
αvβ3 integrin [3] = assay: Ex vivo autoradiography of RGD tracer uptake in the myocardium (infarct vs. remote); conditions: rat MI 1 week after LAD ligation, 90 min p.i., mean ± SD
Method: Permanent ligation of the left anterior descending coronary artery was performed, as previously described in 34 healthy male Lewis rats (Charles Rivers Laboratories, Sulzfeld, Germany) aged 8 to 10 weeks to induce MI. Briefly, the rats were anaesthetised with intramuscular administration of midazolam 5 mg/kg (Dormicum®, Roche; Grenzach-Wyhlen, Germany), medetomidin 0.5 mg/kg (Dormitor®, Pfizer, Karlsruhe, Germany) and fentanyl 0.05 mg/kg (Ratiopharm, Ulm, Germany) and connected to a rodent ventilator. […]
The excised hearts were frozen and embedded in Tissue Tek® mounting media (Sakura Finetek Europe B.V., Alphen aan den Rijn, the Netherlands). […] After an overnight exposure, the imaging plates were scanned with an image plate scanner (CR 35 BIO, Dürr Medical, Raytest Isotopenmeßgeräte GmbH, Germany; internal resolution of 25 μm), and the images were analysed for background-corrected count densities (PSL/mm^2) with an image analysis programme (AIDA Image Analyser, Raytest Isotopenmeßgeräte, Germany). […]
(§1) After careful co-registration of the autoradiographs and HE histological images, regional tracer uptake was analysed in the following two regions: (1) the infarcted myocardium containing the border zone as assessed after HE staining and (2) the remote, non-affected myocardium. […]

[4] = Ex vivo biodistribution in tissues by gamma counting; parameters: species or system rat; conditions: for tissue uptake at 1.5 h: Lewis, rat, in vivo, total radioactivity
Method: Rats were anesthetised using 1.5% isoflurane and were injected via tail vein catheter with ^18F-galacto-RGD (37 MBq, n = 9), ^68Ga-NODAGA-RGD (69 MBq, n = 10) or of ^68Ga-TRAP(RGD)3 (54 MBq, n = 12). Rats were kept under anaesthesia in a warmed bed until euthanized after 90 min using intravenous injection of 150 mg/kg of pentobarbiturate (Narcoren®, Merial, Rohrdorf, Germany). The heart was excised and cut transaxially at the location of the infarct. The apical part, containing both infarct and non-affected remote myocardium, was processed for sectioning for autoradiography as described below.
Tissue samples (remote myocardium, apical part of myocardium, femoral muscle, operation wound and the connective tissue contralateral to the wound, spleen, liver, kidney, urine and blood) were dissected, and the weights of the tissue, urine, blood and serum samples were measured and their activity was detected using a gamma counter (1480 Wizard, PerkinElmer Wallac, Turku, Finland).

αvβ3 integrin [5] = assay: Specificity of RGD binding: pre-injection of a blocking dose of cilengitide, autoradiography; type: in vivo, rat; conditions: cilengitide 18 mg/kg 10 min prior to tracer injection
Method: The specificity of the RGD binding was studied on three rats with pre-injection of a blocking dose of cilengitide (18 mg/kg = 30.6 μmol/kg) 10 min prior to the tracer injection.
The excised hearts were frozen and embedded in Tissue Tek® mounting media (Sakura Finetek Europe B.V., Alphen aan den Rijn, the Netherlands). Serial LV short-axis cryosections of 20-μm thickness were obtained. Similar sections of muscle and spleen samples of the same rat were processed and used as negative and positive controls. After quick air drying, the sections were exposed to an imaging plate (Kodak Storage Phosphor screen GP, Eastman Kodak Company, Rochester, NY, USA). After an overnight exposure, the imaging plates were scanned with an image plate scanner (CR 35 BIO, Dürr Medical, Raytest Isotopenmeßgeräte GmbH, Germany; internal resolution of 25 μm), and the images were analysed for background-corrected count densities (PSL/mm^2) with an image analysis programme (AIDA Image Analyser, Raytest Isotopenmeßgeräte, Germany). […]
as §1

Compound: N=C(N)NCCC[C@@H]1NC(=O)[C@H](CCCCNC(=O)CCP(=O)(O)CN2CCN(CP(=O)(O)CCC(=O)NCCCC[C@@H]3NC(=O)[C@@H](Cc4ccccc4)NC(=O)[C@H](CC(=O)O)NC(=O)CNC(=O)[C@H](CCCNC(=N)N)NC3=O)CCN(CP(=O)(O)CCC(=O)NCCCC[C@@H]3NC(=O)[C@@H](Cc4ccccc4)NC(=O)[C@H](CC(=O)O)NC(=O)CNC(=O)[C@H](CCCNC(=N)N)NC3=O)CC2)NC(=O)[C@@H](Cc2ccccc2)NC(=O)[C@H](CC(=O)O)NC(=O)CNC1=O [^68Ga-TRAP(RGD)3, ^68Ga-TRAP(cyclo(RGDfK))3, metal not drawn]
infarct-to-remote ratio (PET) (αvβ3 integrin [1]; PET image-derived, rat MI 1 week): 1.9
tissue uptake per volume at 1.375 h (αvβ3 integrin [1]; PET, 82.5 min after injection, rat MI 1 week, read-out: image-derived average uptake in the myocardium, infarct area): 0.25 ± 0.02 %ID/mL
IC50 (αvβ3 integrin [2]): 44 nM
infarct vs. remote PSL/mm2 uptake ratio (αvβ3 integrin [3]): 4.1 ± 0.7
tissue uptake at 1.5 h ([4]; 90 min p.i., mean ± SD, contains both infarct and remote areas, read-out: Biodistribution: Apical myocardium): 0.353 ± 0.1 %ID/g
tissue uptake at 1.5 h ([4]; 90 min p.i., mean ± SD, contralateral to the wound, read-out: Biodistribution: Connective tissue): 0.19 ± 0.08 %ID/g
tissue uptake at 1.5 h ([4]; 90 min p.i., mean ± SD, read-out: Biodistribution: Blood): 0.101 ± 0.07 %ID/g
tissue uptake at 1.5 h ([4]; 90 min p.i., mean ± SD, read-out: Biodistribution: Kidney): 1.45 ± 0.51 %ID/g
tissue uptake at 1.5 h ([4]; 90 min p.i., mean ± SD, read-out: Biodistribution: Liver): 0.524 ± 0.61 %ID/g
tissue uptake at 1.5 h ([4]; 90 min p.i., mean ± SD, read-out: Biodistribution: Muscle): 0.066 ± 0.03 %ID/g
tissue uptake at 1.5 h ([4]; 90 min p.i., mean ± SD, read-out: Biodistribution: Remote myocardium): 0.154 ± 0.09 %ID/g
tissue uptake at 1.5 h ([4]; 90 min p.i., mean ± SD, read-out: Biodistribution: Serum): 0.166 ± 0.12 %ID/g
tissue uptake at 1.5 h ([4]; 90 min p.i., mean ± SD, read-out: Biodistribution: Spleen): 0.415 ± 0.3 %ID/g
tissue uptake at 1.5 h ([4]; 90 min p.i., mean ± SD, read-out: Biodistribution: Urine): 35.1 ± 22.4 %ID/g
tissue uptake at 1.5 h ([4]; 90 min p.i., mean ± SD, read-out: Biodistribution: Wound): 0.256 ± 0.12 %ID/g
apical-to-remote ratio ([4]; gamma counting, apical part vs. remote myocardium tissue sample): 2.1

tissue uptake per volume at 1.375 h (αvβ3 integrin [1]; rat): 0.17 ± 0.03 %ID/mL
tissue uptake at 1.5 h ([4]; Biodistribution: Apical myocardium): 0.156 ± 0.06 %ID/g
tissue uptake at 1.5 h ([4]; Biodistribution: Blood): 0.058 ± 0.02 %ID/g
tissue uptake at 1.5 h ([4]; Biodistribution: Connective tissue): 0.11 ± 0.05 %ID/g
tissue uptake at 1.5 h ([4]; Biodistribution: Kidney): 1.1 ± 0.7 %ID/g
tissue uptake at 1.5 h ([4]; Biodistribution: Liver): 0.23 ± 0.17 %ID/g
tissue uptake at 1.5 h ([4]; Biodistribution: Muscle): 0.035 ± 0.01 %ID/g
tissue uptake at 1.5 h ([4]; Biodistribution: Remote myocardium): 0.071 ± 0.03 %ID/g
tissue uptake at 1.5 h ([4]; Biodistribution: Serum): 0.094 ± 0.05 %ID/g
tissue uptake at 1.5 h ([4]; Biodistribution: Spleen): 0.246 ± 0.16 %ID/g
tissue uptake at 1.5 h ([4]; Biodistribution: Urine): 20.2 ± 6.4 %ID/g
tissue uptake at 1.5 h ([4]; Biodistribution: Wound): 0.27 ± 0.24 %ID/g
Compound: N=C(N)NCCC[C@@H]1NC(=O)[C@H](CCCCNC(=O)CCC(C(=O)O)N2CCN(CC(=O)O)CCN(CC(=O)O)CC2)NC(=O)[C@@H](Cc2ccc(O)cc2)NC(=O)[C@H](CC(=O)O)NC(=O)CNC1=O (stereo partly shown) [^68Ga-NODAGA-RGD, ^68Ga-NODAGA-cyclo(RGDyK), metal not drawn]

Compound: ^18F-galacto-cyclo(RGDfK) [^18F-galacto-RGD, reference compound]
IC50 (αvβ3 integrin [2]): 319 nM
infarct vs. remote PSL/mm2 uptake ratio (αvβ3 integrin [3]): 4.7 ± 0.8

Compound: cilengitide
effect of pre-injection of high-dose cilengitide on tracer uptake (αvβ3 integrin [5]): reduced the uptake in the myocardium and also in the spleen
